This is an account of results in patent US12570642B2, “GLP-IR modulating compounds” (Gilead Sciences, Inc., priority 2021, dated 2026).

Broadly, the EC50 is the concentration that produces a half-maximal response. Lower therefore signals higher potency in that assay.

This assay concerns the target GLP-1R (Homo sapiens, UniProt P43220). In words: GLP-1R Activation - cAMP Assay. To be noted: each compound run on one of the two cAMP assays (Assay 1 or Assay 2, not specified). The format is cell-based. The essentials: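 CHO cells stably expressing GLP-1R, plated at 1,000 cells/well overnight, then equilibrated 1 h in HBSS with 20 mM Hepes and 0.1% BSA. Agonist added as 10-point dose response for 30 min at 37 °C. cAMP measured by HTRF (Cisbio Gs Dynamic kit); EC50 from sigmoidal fit.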
(In general: cAMP levels reflect the balance of adenylyl cyclase and phosphodiesterase activity.)

[1] abbreviates: cAMP increase in CHO cells stably expressing GLP-1R.

Chain of GLP-1R (P43220 24-463): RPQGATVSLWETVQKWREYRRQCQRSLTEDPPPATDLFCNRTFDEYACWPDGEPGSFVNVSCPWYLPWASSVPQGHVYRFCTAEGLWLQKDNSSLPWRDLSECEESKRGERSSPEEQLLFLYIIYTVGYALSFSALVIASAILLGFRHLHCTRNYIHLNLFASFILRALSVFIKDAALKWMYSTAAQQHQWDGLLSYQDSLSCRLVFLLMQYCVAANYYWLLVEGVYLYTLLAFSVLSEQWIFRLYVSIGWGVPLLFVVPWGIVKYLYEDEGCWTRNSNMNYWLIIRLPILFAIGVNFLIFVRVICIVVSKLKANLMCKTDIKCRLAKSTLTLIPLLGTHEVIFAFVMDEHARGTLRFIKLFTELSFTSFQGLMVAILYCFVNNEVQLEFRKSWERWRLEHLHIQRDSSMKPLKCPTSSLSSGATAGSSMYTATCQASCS

As to `Cc1cc(Cc2nc3ccc(C(=O)O)cc3n2[C@@H]2COCC2(C)C)c(Cl)cc1-c1ccnc(OCc2ccc(C#N)cc2F)n1` [Example 320, (S)-2-(2-chloro-4-(2-((4-cyano-2-fluorobenzyl)oxy)pyrimidin-4-yl)-5-methylbenzyl)-1-(4,4-dimethyltetrahydrofuran-3-yl)-1H-benzo[d]imidazole-6-carboxylic acid], a half-maximal response under setting [1] (EC50) required 0.827 nM.

For the compound `COCCn1c(Cc2cc(F)c(-c3cccc(OCc4ccc(C#N)cc4F)n3)cc2F)nc2c(-c3cncnc3)cc(C(=O)O)cc21` [Example 55], under setting [1], it took 25.8 nM to reach a half-maximal effect (EC50).

`COCCn1c(Cc2cc(F)c(-c3cccc(OCc4cc(F)c(C)cc4F)n3)cc2F)nc2ccc(C(=O)O)cc21` [Example 28, 2-(4-(6-((2,5-difluoro-4-methylbenzyl)oxy)pyridin-2-yl)-2,5-difluorobenzyl)-1-(2-methoxyethyl)-1H-benzo[d]imidazole-6-carboxylic Acid]: the midpoint of the response under setting [1], the EC50, lay at 1.46 nM.

The compound `Cc1cc(Cc2nc3c(F)cc(C(=O)O)cc3n2[C@@H]2COCC2(C)C)c(Cl)cc1-c1ccc(F)c(OCc2ccc(Cl)cc2F)n1` [Example 334, (S)-2-(2-chloro-4-(6-((4-chloro-2-fluorobenzyl)oxy)-5-fluoropyridin-2-yl)-5-methylbenzyl)-1-(4,4-dimethyltetrahydrofuran-3-yl)-4-fluoro-1H-benzo[d]imidazole-6-carboxylic acid] returned a half-maximal effective concentration (EC50) under setting [1] of 0.067 nM.

As for `CC1(C)COCC1n1c(Cc2cc(F)c(-c3cccc(OCc4ccc(C(F)F)cc4F)n3)cc2F)nc2ccc(C(=O)O)cc21` (centres unmarked) [Example 21, 2-(4-(6-((4-(difluoromethyl)-2-fluorobenzyl)oxy)pyridin-2-yl)-2,5-difluorobenzyl)-1-(4,4-dimethyltetrahydrofuran-3-yl)-1H-benzo[d]imidazole-6-carboxylic Acid], the midpoint of the response under setting [1], the EC50, lay at 0.11 nM.

`COCCn1c(Cc2cc(F)c(-c3cccc(OCc4ccc(C#N)cc4F)n3)cc2F)nc2c(-c3ccccn3)cc(C(=O)O)cc21` [Example 84] had an EC50 under setting [1] of 1.34 nM.

On to `CO[C@@H]1CN(S(C)(=O)=O)C[C@H]1n1c(Cc2cc(F)c(-c3cccc(OCc4ccc(C#N)cc4F)n3)cc2F)nc2ccc(C(=O)O)cc21` [Example 88], for which, under “[…]”, the EC50 was 136 nM.

For the compound `CC1(C)COC[C@H]1n1c(Cc2cc(F)c(-c3ccc(F)c(OCc4cnc(-n5ccnn5)cc4Cl)n3)cc2F)nc2ccc(C(=O)O)cc21` [Example 160, (S)-2-(4-(6-((4-chloro-6-(1H-1,2,3-triazol-1-yl)pyridin-3-yl)methoxy)-5-fluoropyridin-2-yl)-2,5-difluorobenzyl)-1-(4,4-dimethyltetrahydrofuran-3-yl)-1H-benzo[d]imidazole-6-carboxylic Acid], under setting [1], it took 0.035 nM to reach a half-maximal effect (EC50).

The compound `Cn1cc(-c2cc(F)c(COc3cccc(-c4cc(F)c(Cc5nc6ccc(C(=O)O)cc6n5[C@H]5COCC5(C)C)cc4F)n3)cn2)cn1` [Example 57] returned an EC50 under setting [1] of 2.06 nM.

Take `COc1nnc(COc2cccc(-c3ccc(Cc4nc5c(F)cc(C(=O)O)cc5n4[C@@H]4COCC4(C)C)c(F)c3)n2)s1` [Example 309, (S)-1-(4,4-dimethyltetrahydrofuran-3-yl)-4-fluoro-2-(2-fluoro-4-(6-((5-methoxy-1,3,4-thiadiazol-2-yl)methoxy)pyridin-2-yl)benzyl)-1H-benzo[d]imidazole-6-carboxylic acid]: under setting [1], it took 0.368 nM to reach a half-maximal effect (EC50).

As for `CC1(C)COC[C@H]1n1c(Cc2cc(F)c(-c3ccc(F)c(OCc4ccc(C#N)cc4)n3)cc2F)nc2ccc(C(=O)O)cc21` [Example 188, (S)-2-(4-(6-((4-cyanobenzyl)oxy)-5-fluoropyridin-2-yl)-2,5-difluorobenzyl)-1-(4,4-dimethyltetrahydrofuran-3-yl)-1H-benzo[d]imidazole-6-carboxylic acid], the EC50 under setting [1] was determined as 0.032 nM.

In turn, `Cc1cc(Cc2nc3ccc(C(=O)O)cc3n2[C@@H]2COCC2(C)C)c(Cl)cc1-c1ccnc(OCc2ccc(Cl)cc2F)n1` [Example 318, (S)-2-(2-chloro-4-(2-((4-chloro-2-fluorobenzyl)oxy)pyrimidin-4-yl)-5-methylbenzyl)-1-(4,4-dimethyltetrahydrofuran-3-yl)-1H-benzo[d]imidazole-6-carboxylic acid] gave an EC50 under setting [1] of 0.745 nM.

In the case of `C[C@H]1COC[C@H]1n1c(Cc2cc(F)c(-c3cccc(OCc4ccc(C#N)cc4F)n3)cc2F)nc2ccc(C(=O)O)cc21` [Example 494, 2-(4-(6-((4-cyano-2-fluorobenzyl)oxy)pyridin-2-yl)-2,5-difluorobenzyl)-1-((3S,4R)-4-methyltetrahydrofuran-3-yl)-1H-benzo[d]imidazole-6-carboxylic acid], the EC50 under setting [1] stood at 0.051 nM.

`CC1(C)COCCC1n1c(Cc2cc(F)c(-c3cccc(OCc4ccc(C#N)cc4F)n3)cc2F)nc2ccc(C(=O)O)cc21` (centres unmarked) [Example 83, 2-(4-(6-((4-cyano-2-fluorobenzyl)oxy)pyridin-2-yl)-2,5-difluorobenzyl)-1-(3,3-dimethyltetrahydro-2H-pyran-4-yl)-1H-benzo[d]imidazole-6-carboxylic Acid]: the response under setting [1] was half-maximal at 0.62 nM (EC50).

For `CC1(C)COCC1n1c(Cc2cc(F)c(-c3cccc(OCc4ccc(C#N)cc4F)n3)cc2F)nc2ccc(C(=O)O)c(F)c21` (centres unmarked) [Example 165, 2-(4-(6-((4-cyano-2-fluorobenzyl)oxy)pyridin-2-yl)-2,5-difluorobenzyl)-1-(4,4-dimethyltetrahydrofuran-3-yl)-7-fluoro-1H-benzo[d]imidazole-6-carboxylic Acid], it took 0.553 nM to reach a half-maximal effect under setting [1] (EC50).

`CC1(C)COC[C@H]1n1c(Cc2c(F)cc(-c3cccc(OCc4ccc(C#N)cc4F)n3)c(F)c2F)nc2c(F)cc(C(=O)O)cc21` [Example 124] gave a concentration for a half-maximal effect (EC50) under setting [1] of 0.027 nM.

`CC1(C)COC[C@H]1n1c(Cc2cc(F)c(-c3cccc(OCc4ccc(-n5ccnn5)nc4)n3)cc2F)nc2ccc(C(=O)O)cc21` [Example 254, (S)-2-(4-(6-((6-(1H-1,2,3-triazol-1-yl)pyridin-3-yl)methoxy)pyridin-2-yl)-2,5-difluorobenzyl)-1-(4,4-dimethyltetrahydrofuran-3-yl)-1H-benzo[d]imidazole-6-carboxylic acid] displayed an EC50 under setting [1] of 0.088 nM.

As to `CC1(C)COC[C@H]1n1c(Cc2c(F)cc(-c3cccc(OCc4ccc(Cl)cc4F)n3)cc2F)nc2ccc(C(=O)O)cc21` [Example 302, (S)-2-(4-(6-((4-chloro-2-fluorobenzyl)oxy)pyridin-2-yl)-2,6-difluorobenzyl)-1-(4,4-dimethyltetrahydrofuran-3-yl)-1H-benzo[d]imidazole-6-carboxylic acid], under setting [1], a half-maximal effect (EC50) was put at 0.181 nM.

Take `COc1cc(C#N)ccc1COc1cccc(-c2cc(F)c(Cc3nc4ccc(C(=O)O)cc4n3[C@@H]3COCC3(C)C)cc2F)n1` [Example 461, (S)-2-(4-(6-((4-cyano-2-methoxybenzyl)oxy)pyridin-2-yl)-2,5-difluorobenzyl)-1-(4,4-dimethyltetrahydrofuran-3-yl)-1H-benzo[d]imidazole-6-carboxylic acid]: under setting [1], the EC50 was determined as 0.067 nM.

On to `COCCn1c(Cc2nc(N)c(-c3cccc(OCc4ccc(C#N)cc4F)n3)cc2F)nc2ccc(C(=O)O)cc21` [Example 49], for which, under setting [1], the EC50 worked out at 45.6 nM.

On to `Cc1cc(Cc2nc3ccc(C(=O)O)cc3n2[C@@H]2COCC2(C)C)c(F)cc1-c1ccnc(OCc2ccc(Cl)cc2)n1` [Example 219, (S)-2-(4-(2-((4-chlorobenzyl)oxy)pyrimidin-4-yl)-2-fluoro-5-methylbenzyl)-1-(4,4-dimethyltetrahydrofuran-3-yl)-1H-benzo[d]imidazole-6-carboxylic acid], for which the EC50 under setting [1] was 0.189 nM.

In turn, `CO[C@H](C)Cn1c(Cc2cc(F)c(-c3cccc(OCc4ccc(-n5ccnn5)cc4F)n3)cc2F)nc2c(F)cc(C(=O)O)cc21` [Example 354, (R)-2-(2,5-difluoro-4-(6-((2-fluoro-4-(1H-1,2,3-triazol-1-yl)benzyl)oxy)pyridin-2-yl)benzyl)-4-fluoro-1-(2-methoxypropyl)-1H-benzo[d]imidazole-6-carboxylic acid] displayed an EC50 under setting [1] of 0.528 nM.

Regarding `N#Cc1ccc(COc2cccc(-c3cc(F)c(Cc4nc5ccc(C(=O)O)cc5n4C45COCC4C5)cc3F)n2)c(F)c1` (centres unmarked) [Example 69, 1-(3-oxabicyclo[3.1.0]hexan-1-yl)-2-(4-(6-((4-cyano-2-fluorobenzyl)oxy)pyridin-2-yl)-2,5-difluorobenzyl)-1H-benzo[d]imidazole-6-carboxylic Acid], the EC50 under setting [1] worked out at 13.8 nM.

Consider `CC1(C)COC[C@H]1n1c(Cc2cc(F)c(-c3ccc(F)c(OCc4cnc(-n5ccnn5)cc4Cl)n3)cc2F)nc2c(F)cc(C(=O)O)cc21` [Example 153, (S)-2-(4-(6-((4-chloro-6-(1H-1,2,3-triazol-1-yl)pyridin-3-yl)methoxy)-5-fluoropyridin-2-yl)-2,5-difluorobenzyl)-1-(4,4-dimethyltetrahydrofuran-3-yl)-4-fluoro-1H-benzo[d]imidazole-6-carboxylic Acid], for which the EC50 under setting [1] amounted to 0.011 nM.

As for `CC1(C)COC[C@H]1n1c(Cc2cc(F)c(-c3ccnc(OCc4ccc(C#N)cc4)n3)cc2F)nc2c(F)cc(C(=O)O)cc21` [Example 194, (S)-2-(4-(2-((4-cyanobenzyl)oxy)pyrimidin-4-yl)-2,5-difluorobenzyl)-1-(4,4-dimethyltetrahydrofuran-3-yl)-4-fluoro-1H-benzo[d]imidazole-6-carboxylic acid], under setting [1], a half-maximal response (EC50) required 0.265 nM.

Take `CC1(C)COCC1n1c(Cc2cc(F)c(-c3ccnc(OCc4ccc(C(F)F)cc4F)n3)cc2F)nc2c(F)cc(C(=O)O)cc21` (centres unmarked) [Example 504, 2-(4-(2-((4-(difluoromethyl)-2-fluorobenzyl)oxy)pyrimidin-4-yl)-2,5-difluorobenzyl)-1-(4,4-dimethyltetrahydrofuran-3-yl)-4-fluoro-1H-benzo[d]imidazole-6-carboxylic acid]: the response under setting [1] was half-maximal at 0.148 nM (EC50).
